Reference: paper PMC11532403 (Signal Transduction and Targeted Therapy, 2024)
Read-outs that look alike come from different tables or passages of the source.

Experiments:
respiratory system = experiment: Respiratory safety pharmacology; assay type: in vivo, SD rats; settings: single oral, males 15-40, females 30-80 mg/kg
Procedure: All rats were evaluated by cage-side observation, detailed clinical observation, body weight and respiratory parameters (tidal volume, minute tidal volume and respiratory rate).

preclinical animals = experiment: Preclinical animal long term (repeat-dose) toxicity tests, species not stated; assay type: in vivo
CYP3A4 [1] = experiment: CYP induction in hepatocytes; assay type: in vitro ADME, human; settings: 1, 5, 50 μM, three donors
CYP3A4 [2] = biological target: T1, CYP3A4 (Homo sapiens, UniProt P08684); experiment: CYP inhibition in human liver microsomes; assay type: in vitro ADME; settings: mixed human liver microsomes, 0.5-25 μM
T1 construct: substrates of different CYP450 enzymes in mixed human liver microsomes; from tissue; host or cells: mixed human liver microsomes

[3] = tested on: HEK293T-KIF5B-RET V804M cells; experiment: Proliferation assay (CellTiter-Glo); assay type: cell-based; settings: Homo sapiens, read-out: Cellular Viability IC50
Procedure: (§1) The cell lines HEK293T, Baf3, TT cell and NIH-3T3 were obtained from the Cell Resource Center, Peking Union Medical College (PCRC). HEK293T and NIH-3T3 were maintained in DMEM high glucose medium (#C3113-0500, Vivacell) supplemented with 10 % FBS (#10500064, Gibco) and 1 % Penicillin-Streptomycin (#15140122, Gibco). The murine Pro‐B cell line Baf3 was cultured in RPMI 1640 medium (#C3010, Vivacell) supplemented with 10 % FBS, 1 % Penicillin-Streptomycin and 1 ng/mL recombinant murine interleukin-3 (#213-13, PeproTech). All stably transformed BaF3 cells were cultured in RPMI 1640 without IL‐3. The TT MTC cell was grown in Ham's F-12K medium (#21127022, Gibco) supplemented with 10 % FBS and 1 % Penicillin-Streptomycin. Cells were cultured at 37 °C under 5 % CO2 and high humidity conditions.
(§2) KIF5B-RET, CCDC6-RET and mutations were cloned into pCDHL vector and were verified by sequencing. Reah RET expression vectors were separately co‐transfected with psPAX2 and pMD2.G packaging plasmids into 60-70% confluent HEK 293T cells maintained in 2 mL of culture medium in six‐well plates using Polyethyleneimine (PEI) transfection grade. Virus containing media was harvested after 48 h and filtered with 0.45 μm membrane and stored at -80 °C prior to infection. For infection of Ba/F3 cells, 1 mL of viral supernatant and 8 μg/mL polybrene were added to 5 million cells per well in six‐well plates. Infected cells were selected with the addition of 1 μg/mL puromycin for 2 weeks in RPMI-1640/ 10% FBS/ 1 ng/mL IL-3 medium. Subsquently, puromycin-resistant cells were cultured in IL-3-free medium for 1 week and RET fusion proteins were confirmed by immunoblot analysis.
(§3) Cell viability was assessed by luminescence using CellTiter-Glo 2.0 assay (Promega). IC50 curve fitting was performed using GraphPad Prism 9.0.

[4] = tested on: HEK293T-KIF5B-RET WT cells; experiment: Proliferation assay (CellTiter-Glo); assay type: cell-based; settings: Homo sapiens, read-out: Cellular Viability IC50
Procedure: as §1, §2, §3

[5] = tested on: HEK293T-KIF5B-RET M918T cells; experiment: Proliferation assay (CellTiter-Glo); assay type: cell-based; settings: Homo sapiens, read-out: Cellular Viability IC50
Procedure: as §1, §2, §3

[6] = Phase 1 trial: plasma pharmacokinetics; assay type: in vivo; settings: human; for AUC(0-t): read-out: AUC0–12 h mean; for AUC(0-inf): read-out: AUCINF_obs mean; for Cmax: read-out: Cmax mean; for MRT inf: read-out: MRTINF_obs mean; for half-life: read-out: T1/2 mean (converted); for Tmax: read-out: Tmax mean
Text: Serial plasma samples were also collected in each patient after the first dose and during multiple-dose administration on Cycle 1 Day 28.

[7] = 20 mg, Cycle 1 Day 1, 20 mg BID (n = 1)
[8] = 20 mg, Cycle 1 Day 1, 20 mg QD (n = 1)
[9] = 40 mg, Cycle 1 Day 1, 40 mg BID (n = 3)
[10] = 80 mg, Cycle 1 Day 1, 80 mg BID (n = 3)
[11] = 120 mg, Cycle 1 Day 1, 120 mg BID (n = 3)
[12] = 160 mg, Cycle 1 Day 1, 160 mg BID (n = 23)
[13] = 160 mg, Cycle 1 Day 28, 160 mg BID (n = 15)

T1 sequence (P08684 whole entry): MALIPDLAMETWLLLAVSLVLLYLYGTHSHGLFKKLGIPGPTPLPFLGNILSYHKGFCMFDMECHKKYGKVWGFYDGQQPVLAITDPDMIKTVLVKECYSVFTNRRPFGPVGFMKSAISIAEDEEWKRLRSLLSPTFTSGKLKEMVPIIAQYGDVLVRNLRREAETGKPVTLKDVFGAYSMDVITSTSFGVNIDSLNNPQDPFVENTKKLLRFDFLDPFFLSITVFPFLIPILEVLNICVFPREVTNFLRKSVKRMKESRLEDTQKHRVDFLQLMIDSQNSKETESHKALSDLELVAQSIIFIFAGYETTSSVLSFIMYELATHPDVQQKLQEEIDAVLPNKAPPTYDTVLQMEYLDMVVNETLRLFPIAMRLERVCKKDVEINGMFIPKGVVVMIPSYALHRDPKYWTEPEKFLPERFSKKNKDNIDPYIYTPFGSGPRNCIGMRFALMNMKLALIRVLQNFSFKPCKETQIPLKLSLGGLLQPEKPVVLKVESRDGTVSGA

With `COc1ccc(CN2C3CC2CN(c2ccc(-c4cc(N5CC(C)(O)C5)cn5ncc(C#N)c45)cn2)C3)cn1` [SY-5007, 6-(3-hydroxy-3-methylazetidin-1-yl)-4-(6-(6-((6-methoxypyridin-3-yl)methyl)-3,6-diazabicyclo[3.1.1]heptan-3-yl)pyridin-3-yl)pyrazolo[1,5-a]pyridine-3-carbonitrile] the Respiratory effects (respiratory system) was “nor did it show any effects on the respiratory parameters”, the “Liver and gallbladder toxicity” value (preclinical animals; preclinical animal long term toxicity tests) was “? Provision is made for the toxicity to the liver and gallbladder found in preclinical animal long term toxicity tests, and for adverse events associated with drugs with a similar mechanism of action to this product” and the “Reproductive toxicity (reproductive tissue weight)” value (preclinical animals; preclinical long toxicity experiments) was “? Preclinical long toxicity experiments observed a weight reduction in reproductive tissue, so relevant regulations are made”. The CYP3A4 induction (CYP3A4 [1]) was “no induction”, the IC50 (CYP3A4 [2]) was 18000 nM and the IC50 [3] was 99 nM. The IC50 [4] was 54.4 nM, the IC50 [5] was 57 nM and the AUC(0-t) [6, 7] was 1580 ng·h/mL. The AUC(0-inf) [6, 7] was 3830 ng·h/mL, the Cmax [6, 7] was 214 ng/mL and the MRT inf [6, 7] was 16.7 h. For the same molecule, the half-life [6, 7] was 12.1 h, the Tmax [6, 7] was 4 h and the AUC(0-t) [6, 8] was 2230 ng·h/mL. It also gave an AUC(0-inf) [6, 8] of 2410 ng·h/mL, a Cmax [6, 8] of 391 ng/mL and an MRT inf [6, 8] of 7.7 h. For the same molecule, the half-life [6, 8] was 6.8 h, the Tmax [6, 8] was 1 h and the AUC(0-t) [6, 9] was 2720 ng·h/mL. It also gave an AUC(0-inf) [6, 9] of 3760 ng·h/mL, a Cmax [6, 9] of 714 ng/mL and an MRT inf [6, 9] of 8.9 h. For the same molecule, the half-life [6, 9] was 8.7 h, the Tmax [6, 9] was 0.5 h and the AUC(0-t) [6, 10] was 5150 ng·h/mL. For the same molecule, the AUC(0-inf) [6, 10] was 7220 ng·h/mL, the Cmax [6, 10] was 1450 ng/mL and the MRT inf [6, 10] was 12.4 h. The half-life [6, 10] was 37.8 h, the Tmax [6, 10] was 0.5 h and the AUC(0-t) [6, 11] was 9270 ng·h/mL. For the same molecule, the AUC(0-inf) [6, 11] was 14100 ng·h/mL, the Cmax [6, 11] was 2470 ng/mL and the MRT inf [6, 11] was 11.6 h. The half-life [6, 11] was 44.4 h, the Tmax [6, 11] was 0.5 h and the AUC(0-t) [6, 12] was 16700 ng·h/mL. The AUC(0-inf) [6, 12] was 21300 ng·h/mL, the Cmax [6, 12] was 3470 ng/mL and the MRT inf [6, 12] was 8.2 h. The half-life [6, 12] was 10.8 h, the Tmax [6, 12] was 1 h and the AUC(0-t) [6, 13] was 36800 ng·h/mL. It also gave an AUC(0-inf) [6, 13] of 67200 ng·h/mL, a Cmax [6, 13] of 4730 ng/mL and an MRT inf [6, 13] of 13.9 h. For the same molecule, the half-life [6, 13] was 9 h.
